Test results published in ChEMBL document CHEMBL1155704, “Acetylated analogues of the microtubule-stabilizing agent discodermolide: preparation and biological activity” (J Nat Prod, 2001).

Tested on: P388
Experiment: Cytotoxicity against mouse P388 cells after 48 hrs by MTT assay
Format: functional, cell-based
Settings: P388, 48 h

SMILES	IC50 [nM]
C=C/C=C\[C@H](C)[C@H](OC(N)=O)[C@@H](C)[C@H](O)[C@@H](C)C/C(C)=C\[C@H](C)[C@@H](O)[C@@H](C)/C=C\[C@H](C[C@@H]1OC(=O)[C@H](C)[C@@H](O)[C@H]1C)OC(C)=O	3.9
C=C/C=C\[C@H](C)[C@H](OC(N)=O)[C@@H](C)[C@H](O)[C@@H](C)C/C(C)=C\[C@H](C)[C@@H](OC(C)=O)[C@@H](C)/C=C\[C@H](C[C@@H]1OC(=O)[C@H](C)[C@@H](OC(C)=O)[C@H]1C)OC(C)=O	166
C=C/C=C\[C@H](C)[C@H](OC(N)=O)[C@@H](C)[C@H](O)[C@@H](C)C/C(C)=C\[C@H](C)[C@@H](O)[C@@H](C)/C=C\[C@@H](O)C[C@@H]1OC(=O)[C@H](C)[C@@H](OC(C)=O)[C@H]1C	12.6
C=C/C=C\[C@H](C)[C@H](OC(N)=O)[C@@H](C)[C@H](O)[C@@H](C)C/C(C)=C\[C@H](C)[C@@H](O)[C@@H](C)/C=C\[C@H](C[C@@H]1OC(=O)[C@H](C)[C@@H](OC(C)=O)[C@H]1C)OC(C)=O	0.74
C=C/C=C\[C@H](C)[C@H](OC(N)=O)[C@@H](C)[C@H](OC(C)=O)[C@@H](C)C/C(C)=C\[C@H](C)[C@@H](OC(C)=O)[C@@H](C)/C=C\[C@H](C[C@@H]1OC(=O)[C@H](C)[C@@H](OC(C)=O)[C@H]1C)OC(C)=O	837
C=C/C=C\[C@H](C)[C@H](OC(N)=O)[C@@H](C)[C@H](OC(C)=O)[C@@H](C)C/C(C)=C\[C@H](C)[C@@H](O)[C@@H](C)/C=C\[C@H](C[C@@H]1OC(=O)[C@H](C)[C@@H](OC(C)=O)[C@H]1C)OC(C)=O	> 6920
C=C/C=C\[C@H](C)[C@H](OC(N)=O)[C@@H](C)[C@H](O)[C@@H](C)C/C(C)=C\[C@H](C)[C@@H](OC(C)=O)[C@@H](C)/C=C\[C@@H](O)C[C@@H]1OC(=O)[C@H](C)[C@@H](OC(C)=O)[C@H]1C	103
C=C/C=C\[C@H](C)[C@H](OC(N)=O)[C@@H](C)[C@H](OC(C)=O)[C@@H](C)C/C(C)=C\[C@H](C)[C@@H](O)[C@@H](C)/C=C\[C@@H](O)C[C@@H]1OC(=O)[C@H](C)[C@@H](OC(C)=O)[C@H]1C	1150
